Experimental data: patent US20230348450A1, “CARBOXYLIC ACID-CONTAINING COMPOUNDS AS MODULATORS OF BIS-PHOSPHOGLYCERATE MUTASE FOR THE TREATMENT OF SICKLE CELL DISEASE” (Genzyme Corporation, priority 2020, published 2023)

Assays:
hBPGM = hBPGM (Homo sapiens (Human), UniProt P07738); experiment: BPGM Synthase Assay; assay type: biochemical; details: Table 6 additional results; read-out: huBPGM: synthase Enzyme IC50
How it was run: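 BPGM (5 nM) with GAPDH (0.4 U/mL) was incubated with compound for 30 min at RT in pH 7.4 Tris buffer with 3.23 mM KH2PO4 and 1 mM DTT. Reaction ran 60 min with NAD, 3PG and GAP (substrate solution 2 mM, 20 μM and 800 μM). After koningic acid stop, NADH fluorescence was read, then resorufin from diaphorase/resazurin coupling.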

[1] = target: human Bisphosphoglycerate mutase (hBPGM) (Homo sapiens (Human), UniProt P07738); experiment: BPGM Phosphatase Assay; assay type: biochemical; details: Table 6 additional results; read-out: huBPGM: phosphatase Enzyme EC50
human Bisphosphoglycerate mutase (hBPGM), sequence (P07738 whole entry): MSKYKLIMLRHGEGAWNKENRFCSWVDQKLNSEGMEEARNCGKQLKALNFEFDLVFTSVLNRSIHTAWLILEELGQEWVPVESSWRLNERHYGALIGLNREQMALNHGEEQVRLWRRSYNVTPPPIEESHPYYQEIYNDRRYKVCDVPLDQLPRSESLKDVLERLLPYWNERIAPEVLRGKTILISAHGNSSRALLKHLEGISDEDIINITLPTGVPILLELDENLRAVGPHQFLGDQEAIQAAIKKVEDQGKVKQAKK
Procedure: Solutions of the test compounds were then added to the plate and the DMSO content was normalized across the plate. The plate was incubated at RT for 15 min. Next, the substrate 2,3-BPG (5 μL) was added to all the wells, and the plate was sealed and incubated for 24 hr at RT. After incubation, BIOMOL green dye (40 μL) was added to all the wells, the plate was shaken to mix, and the plate was incubated at RT for 20-30 min.

hBPGM, sequence (P07738 whole entry, looked up): as the sequence (P07738 whole entry) above

| Structure (SMILES) | IC50 (hBPGM) [nM] | EC50 [1] [nM] |
| --- | --- | --- |
| Cc1nc(CNC(=O)c2cccnn2)sc1-c1csc(-c2cc(O)c(C(=O)O)cc2F)n1 [Example 171] | 28 | 30 |
| Cc1nc(C)c(-c2csc(-c3ccc(C(=O)O)c(O)c3)c2)s1 [Example 274] | 430 | 390 |
| Cc1nc(CNC(=O)C2COC2)sc1-c1cccc(-c2ccc(C(=O)O)c(O)c2)c1 [Example 247] | 1000 | 3900 |
| Cc1nc(Cc2cccnc2)sc1-c1cccc(-c2ccc(C(=O)O)c(O)c2)c1 [Example 273] | 390 | 170 |
| Cc1nc(COc2ccn(C)n2)sc1-c1csc(-c2cc(O)c(C(=O)O)cc2F)n1 [Example 219] | 120 | 65 |
| Cc1nc(CNC(=O)CCN(C)C)sc1-c1csc(-c2cc(O)c(C(=O)O)cc2F)n1 [Example 115] | 670 | 180 |
| Cc1nc(COc2ncccn2)sc1-c1cccc(-c2cnc(C(=O)O)s2)n1 [Example 94] | 11000 | > 25000 |
| Cc1ccnc(NCc2nc(C)c(-c3cccc(-c4ccc(C(=O)O)c(O)c4)c3)s2)c1 [Example 68] | 1400 | 60 |
| Cc1nc(CNC(=O)c2ccon2)sc1-c1csc(-c2cc(O)c(C(=O)O)cc2F)n1 [Example 152] | 67 | 40 |
| Cc1nc(Cc2ccccc2)sc1-c1csc(-c2ccc(C(=O)O)c(O)c2)n1 [Example 280] | 330 | 140 |
| CC(=O)Nc1cccc(OCc2nc(C)c(-c3csc(-c4cc(O)c(C(=O)O)cc4F)n3)s2)n1 [Example 145] | 250 | 50 |
| Cc1nc(CNc2ncccn2)sc1-c1cccc(-c2ccc(C(=O)O)cc2)c1 [Example 80] | 220 | 1700 |
| Cc1cccc(OCc2nc(C)c(-c3cccc(-c4ccc(C(=O)O)c(O)c4)c3)s2)n1 [Example 269] | 2000 | 270 |
| Cc1nc(Cn2cccnc2=O)sc1-c1csc(-c2cc(O)c(C(=O)O)cc2F)n1 [Example 181] | 210 | 80 |
| COC(=O)NCc1nc(C)c(-c2csc(-c3ccc(C(=O)O)cc3F)n2)s1 [Example 238] | 1300 | > 25000 |
| Cc1nc(C(C)NC(=O)c2cccnn2)sc1-c1csc(-c2cc(O)c(C(=O)O)cc2F)n1 (stereo not drawn) [Example 151] | 65 | 70 |
| Cc1nc(Cn2ccccc2=O)sc1-c1cccc(-c2ccc(C(=O)O)c(O)c2)n1 [Example 101] | 760 | 7300 |
| Cc1nc(CNC(=O)c2ncccn2)sc1-c1csc(-c2cc(O)c(C(=O)O)cc2F)n1 [Example 192] | 49 | 120 |
| Cc1nc(CNC2CCOC2)sc1-c1cccc(-c2ccc(C(=O)O)cc2)c1 (stereo not drawn) [Example 50] | > 25000 | > 25000 |
| Cc1nc(CNc2ncccn2)sc1-c1cccc(-c2ccc(C(=O)O)cc2)n1 [Example 63] | 630 | > 25000 |
| Cc1nc(COc2ncccn2)sc1-c1cccc(-c2ccc(C(=O)O)cc2)n1 [Example 95] | 280 | 2100 |
| Cc1nc(Cn2c(C#N)cccc2=O)sc1-c1cccc(-c2ccc(C(=O)O)c(O)c2)c1 [Example 103] | 950 | 130 |
| Cc1nc(Cc2ccncc2)sc1-c1cccc(-c2ccc(C(=O)O)c(O)c2)c1 [Example 281] | 730 | 120 |
| COCCOCCOCCOCCOCC(=O)NCc1nc(C)c(-c2csc(-c3ccc(C(=O)O)c(O)c3)n2)s1 [Example 121] | 1800 | 3200 |
| Cc1nc(N)sc1-c1csc(-c2cc(O)c(C(=O)O)cc2F)n1 [Example 210] | 930 | 830 |
| Cc1nc(CNC(=O)C(C)(C)C)sc1-c1cccc(-c2ccc(C(=O)O)c(O)c2)c1 [Example 81] | 450 | 1100 |
| Cc1nc(COc2ccc(C#N)cn2)sc1-c1cccc(-c2ccc(C(=O)O)c(O)c2)c1 [Example 93] | 3300 | 270 |

| Structure (SMILES) | IC50 (hBPGM) [nM] | EC50 [1] [nM] |
| --- | --- | --- |
| COC(=O)NCc1nc(C)c(-c2ccnc(-c3cc(O)c(C(=O)O)cc3F)n2)s1 [Example 155] | 310 | > 25000 |
| COC(=O)C(=O)NCc1nc(C)c(-c2csc(-c3cc(O)c(C(=O)O)cc3F)n2)s1 [Example 201] | 110 | 640 |
| Cc1nc(CNC2CCCCC2)sc1-c1csc(-c2cc(O)c(C(=O)O)cc2F)n1 [Example 174] | 530 | 230 |
| Cc1nc(CNC(=O)C2CCNCC2)sc1-c1csc(-c2cc(O)c(C(=O)O)cc2F)n1 [Example 125] | 410 | 340 |
| COC(=O)NC(C)c1nc(C)c(-c2csc(-c3cc(O)c(C(=O)O)cc3F)n2)s1 (stereo not drawn) [Example 188] | 55 | 160 |
| CC(=O)Nc1nc(C)c(-c2csc(-c3cc(O)c(C(=O)O)cc3F)n2)s1 [Example 194] | 250 | 140 |
| Cc1nc(CNC(=O)c2cccnn2)sc1-c1cccc(-c2ccc(C(=O)O)c(O)c2)n1 [Example 148] | 250 | 280 |
| Cc1nc(Cc2cccnc2)sc1-c1csc(-c2cc(O)c(C(=O)O)cc2F)c1 [Example 143] | 200 | 80 |
| Cc1nc(CN2CCOC2=O)sc1-c1cccc(-c2ccc(C(=O)O)c(O)c2)c1 [Example 263] | 1300 | 1400 |
| COC(=O)NCc1nc(C)c(-c2csc(-c3c(F)cc(C(=O)O)cc3F)n2)s1 [Example 225] | 830 | 7300 |
| Cc1nc(CNC(=O)C2CCC2)sc1-c1csc(-c2cc(O)c(C(=O)O)cc2F)n1 [Example 220] | 52 | 63 |
| COC(=O)NCc1nc(C)c(-c2cc(-c3cc(O)c(C(=O)O)cc3F)sn2)s1 [Example 168] | 370 | 530 |
| Cc1nc(CNC(=O)C2CC2)sc1-c1csc(-c2cc(O)c(C(=O)O)cc2F)c1 [Example 233] | 78 | 110 |
| Cc1nc(Cc2ccccc2)sc1-c1csc(-c2cc(O)c(C(=O)O)cc2F)n1 [Example 165] | 240 | 40 |
| Cc1ccc(Cc2nc(C)c(-c3csc(-c4cc(O)c(C(=O)O)cc4F)c3)s2)cn1 [Example 98] | 170 | 100 |
| Cc1nc(CNC(=O)c2cc[nH]n2)sc1-c1csc(-c2cc(O)c(C(=O)O)cc2F)n1 [Example 172] | 40 | 40 |
| COC(=O)NCc1nc(C)c(-c2cccc(-c3cc(O)c(C(=O)O)cc3F)n2)s1 [Example 235] | 110 | 140 |
| Cc1nc(Cc2ccn(C)n2)sc1-c1csc(-c2cc(O)c(C(=O)O)cc2F)n1 [Example 160] | 65 | 130 |
| Cc1ccc(OCc2nc(C)c(-c3cccc(-c4ccc(C(=O)O)c(O)c4)c3)s2)nc1 [Example 82] | 1100 | 210 |
| Cc1nc(Cn2cccn2)sc1-c1csc(-c2cc(O)c(C(=O)O)cc2F)n1 [Example 248] | 110 | 110 |
| Cc1nc(Cn2cccn2)sc1-c1cccc(-c2ccc(C(=O)O)c(O)c2)c1 [Example 286] | 810 | 3100 |
| Cc1nc(CNC(=O)c2cccnn2)sc1-c1csc(-c2cc(O)c(C(=O)O)cc2F)n1 [Example 197] | 24 | 220 |
| Cc1nc(Cn2c(C)cccc2=O)sc1-c1cccc(-c2ccc(C(=O)O)c(O)c2)c1 [Example 267] | 520 | 350 |
| Cc1ccnc(OCc2nc(C)c(-c3csc(-c4cc(O)c(C(=O)O)cc4F)n3)s2)n1 [Example 133] | 50 | 80 |
| Cc1nc(COc2ncccn2)sc1-c1cccc(-c2cc(O)c(C(=O)O)cc2F)n1 [Example 129] | 40 | 40 |
| Cc1nc(Cc2ccn(C)n2)sc1-c1csc(-c2ccc(C(=O)O)c(O)c2)n1 [Example 189] | 120 | 330 |
| Cc1nc(COc2ccccn2)sc1-c1cccc(-c2ccc(C(=O)O)cc2)c1 [Example 72] | 480 | > 25000 |
